Results on two compounds are retold here after publication PMC8746709, “Benzothiazolium Derivative-Capped Silica Nanocomposites for β-Amyloid Imaging In Vivo” (Analytical Chemistry, 2021).

For this experiment, the target named is T1, β-amyloid(1–42) (Aβ1–42) aggregates (Homo sapiens, UniProt P05067).
T1 construct: gene APP; Aβ1–42, aggregates (filamentous)
The experiment is described as follows: fluorescence saturation binding assay with Aβ[…] aggregates.

T1 sequence (P05067 672-713): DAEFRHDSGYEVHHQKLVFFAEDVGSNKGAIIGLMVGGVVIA

As to `CN(C)c1ccc(/C=C/C=C/c2sc3ccccc3[n+]2C)cc1` [SZI-2, 2-((1E,3E)-4-(4-(Dimethylamino)phenyl)buta-1,3-dien-1-yl)-3-methylbenzo[d]thiazol-3-ium Iodide], binding was put at a Kd of 601 ± 94.8 nM.

On to `CN(C)c1ccc(/C=C/c2sc3ccccc3[n+]2C)cc1` [SZI-1, (E)-2-(4-(Dimethylamino)styryl)-3-methylbenzo[d]thiazol-3-ium Iodide], for which the affinity, expressed as Kd, was 508 ± 94.8 nM.

The Kd is a measure of binding affinity in units of concentration.
